# Assay results taken from patent US20140357487A1, “PLANTS HAVING INCREASED TOLERANCE TO HERBICIDES” (BASF SE, priority 2011, published 2014).
# Legend:
# [1] = test system: Chlamydomonas HPPD1; assay: HPPD activity assay, Chlamydomonas HPPD1; format: biochemical, Chlamydomonas reinhardtii; settings: normalized on Arabidopsis wild-type HPPD
# Method: (§1) HPPD produces homogentisic acid and CO2 from 4-hydroxyphenylpyruvate (4-HPP) and O2. The activity assay for HPPD is based on the analysis of homogentisic acid by reversed phase HPLC.
# (§2) The assay mixture can contain 150 mM potassium phosphate buffer pH 7.0, 50 mM L-ascorbic acid, 1 μM FeSO4 and 7 μg of purified enzyme in a total volume of 1 ml.
# (§3) Inhibitors are dissolved in DMSO (dimethylsulfoxide) to a concentration of 20 mM or 0.5 mM, respectively. From this stock solution serial five-fold dilutions are prepared in DMSO, which are used in the assay. The respective inhibitor solution accounts for 1% of the assay volume. Thus, final inhibitor concentrations range from 200 μM to 2.5 nM or from 5 μM to 63 pM, respectively. After a preincubation of 30 min the reaction is started by adding 4-HPP to a final concentration of 0.1 mM. The reaction is allowed to proceed for 120 min at room temperature. The reaction is stopped by addition of 100 μl of 4.5 M phosphoric acid.
# (§4) Activities are normalized by setting the uninhibited enzyme activity to 100%. IC50 values are calculated using non-linear regression.
# (§5) The assay mixture can contain 150 mM potassium phosphate buffer pH 7.0, 50 mM L-ascorbic acid, 100 μM Catalase (Sigma-Aldrich), 1 μM FeSO4 and 0.2 units of purified HPPD enzyme in a total volume of 505 μl. […]
# (§6) Inhibitors are dissolved in DMSO (dimethylsulfoxide) to a concentration of 0.5 mM. […] IC50 values are calculated using non-linear regression.
# (§7) Using methods which are described in the above examples or well known in the art, purified, recombinant wildtype HPPD enzymes are characterized with respect to their kinetic properties and sensitivity towards HPPD inhibiting herbicides. Apparent michaelis constants (Km) and maximal reaction velocities (Vmax) are calculated by non-linear regression with the software GraphPad Prism 5 (GraphPad Software, La Jolla, USA) using a substrate inhibition model. […] Weighted means (by standard error) of Km and […] values are calculated from at least three independent experiments. […]
# [2] = test system: Poa HPPD; assay: HPPD activity assay, Poa HPPD; format: biochemical; settings: normalized on Arabidopsis wild-type HPPD
# Method: as §1, §2, §3, §4, §5, §6, §7
# [3] = test system: soybean plants, wild type (transgene none); assay: Greenhouse testing of soybean plants, wild type; format: in vivo, Glycine max; settings: 5 days after herbicide treatment
# From the text: Various methods for the production of stably transformed plants are well known in the art. Coumarone-derivative herbicide tolerant soybean (Glycine max) or corn (Zea mays) plants can be produced by a method described by Olhoft et al. (US patent 2009/0049567). Briefly, HPPD or HST encoding polynucleotides are cloned into a binary vector using standard cloning techniques as described by Sambrook et al. (Molecular cloning (2001) Cold Spring Harbor Laboratory Press). The final vector construct contains an HPPD or HST encoding sequence flanked by a promoter sequence (e.g. the ubiquitin promoter (PcUbi) sequence) and a terminator sequence (e.g. the nopaline synthase terminator (NOS) sequence) and a resistance marker gene cassette (e.g. AHAS) (FIG. 2). Optionally, the HPPD or HST gene can provide the means of selection. Agrobacterium-mediated transformation is used to introduce the DNA into soybean's axillary meristem cells at the primary node of seedling explants. After inoculation and co-cultivation with Agrobacteria, the explants are transferred to shoot induction medium without selection for one week. The explants are subsequently transferred to shoot induction medium with 1-3 μM imazapyr (Arsenal) for 3 weeks to select for transformed cells. Explants with healthy callus/shoot pads at the primary node are then transferred to shoot elongation medium containing 1-3 μM imazapyr until a shoot elongates or the explant dies. After regeneration, transformants are transplanted to soil in small pots, placed in growth chambers (16 hr day/8 hr night; 25° C. day/23° C. night; 65% relative humidity; 130-150 mE m−2 s−1) and subsequently tested for the presence of the T-DNA via Taqman analysis. After a few weeks, healthy, transgenic positive, single copy events are transplanted to larger pots and allowed to grow in the growth chamber. Transformation of corn plants is done by a method described by McElver and Singh (WO 2008/124495). Plant transformation vector constructs containing HPPD or HST sequences are introduced into maize immature embryos via Agrobacterium-mediated transformation. Transformed cells are selected in selection media supplemented with 0.5-1.5 μM imazethapyr for 3-4 weeks. Transgenic plantlets are regenerated on plant regeneration media and rooted afterwards. Transgenic plantlets are subjected to TaqMan analysis for the presence of the transgene before being transplanted to potting mixture and grown to maturity in greenhouse. Arabidopsis thaliana is transformed with HPPD or HST sequences by floral dip method as described by McElver and Singh (WO 2008/124495). Transgenic Arabidopsis plants are subjected to Tag Man analysis for analysis of the number of integration loci. Transformation of Oryza sativa (rice) are done by protoplast transformation as described by Peng et al. (U.S. Pat. No. 6,653,529)
# Transgenic plants expressing heterologous HPPD or HST enzymes are tested for tolerance against coumarone-derivative herbicides in greenhouse experiments.
# For post emergence treatment, the test plants are first grown to a height of 3 to 15 cm, depending on the plant habit, and only then treated with the herbicides. For this purpose, the test plants are either sown directly and grown in the same containers, or they are first grown separately and transplanted into the test containers a few days prior to treatment.
# Depending on the species, the plants are kept at 10-25° C. or 20-35° C. The test period extends over 3 weeks. During this time, the plants are tended and their response to the individual treatments is evaluated. […] Tolerance to coumarone-derivative herbicides can also be assessed in Arabidopsis. In this case transgenic Arabidopsis thaliana plants are assayed for improved tolerance to coumarone-derivative herbicides in 48-well plates. Seeds are surface sterilized by stirring for 5 min in ethanol+water (70+30 by volume), rinsing one time with ethanol+water (70+30 by volume) and two times with a sterile, deionized water. […]
structure (smiles),measurement,setting,value
"COCCOCc1c(Cl)ccc(C2=C(O)c3ncccc3C(C)(C)S2(=O)=O)c1Cl [Inhibitor 3, 7-[2,4-dichloro-3-(2-methoxyethoxymethyl)phenyl]-5,5-dimethyl-6,6-dioxo-thiopyrano[4,3-b]pyridin-8-ol]",Normalized tolerance index TI,[1],0.1
"CC1=NOC(c2c(Cl)ccc(C3=C(O)c4ncccc4C(C)(C)S3(=O)=O)c2Cl)C1 (stereo not shown) [Inhibitor 1, 7-[2,4-dichloro-3-(3-methyl-4,5-dihydroisoxazol-5-yl)phenyl]-5,5-dimethyl-6,6-dioxo-thiopyrano[4,3-b]pyridin-8-ol]",Normalized tolerance index TI,[1],2.1
same,Normalized tolerance index TI,[2],2.1
"CC1(C)c2cccnc2C(O)=C(c2ccc(Cl)nc2Cl)S1(=O)=O [Inhibitor 2, 7-(2,6-dichloro-3-pyridyl)-5,5-dimethyl-6,6-dioxo-thiopyrano[4,3-b]pyridin-8-ol]",Normalized tolerance index TI,[2],1.1
same,"Injury evaluation, scale of 1-100, bleaching phenotype",[3]; 2.5 g/ha,11
same,"Injury evaluation, scale of 1-100, bleaching phenotype",[3]; 10 g/ha,17
same,"Injury evaluation, scale of 1-100, bleaching phenotype",[3]; 40 g/ha,23
"Cc1c(C(=O)c2cnn(C)c2O)ccc(S(C)(=O)=O)c1C1=NOCC1 [Topramezone, reference compound]","Injury evaluation, scale of 1-100, bleaching phenotype",[3]; 6.25 g/ha,21
same,"Injury evaluation, scale of 1-100, bleaching phenotype",[3]; 25 g/ha,22
same,"Injury evaluation, scale of 1-100, bleaching phenotype",[3]; 100 g/ha,25
